Measured values from article PMC6503114, “Application of Antimicrobial Peptides of the Innate Immune System in Combination With Conventional Antibiotics—A Novel Way to Combat Antibiotic Resistance?” (Frontiers in Cellular and Infection Microbiology, 2019).
Read-outs that look alike come from different tables or passages of the source.

Columns and labels:
[1] = system: MRSA ATCC 33591; format: cell-based, Staphylococcus aureus
Procedure: (§1) According to checkerboard titration template, one component (A) of the combination was diluted along the rows of the plate, while the other (B) was diluted down the columns, thereby creating the variety of mixtures with different concentrations of tested compounds. 2.5 μl of corresponding solutions of the components A and B were added into each well of the plate. Into the first column and the last row the same amount of 10 mM sodium phosphate buffer, pH 7.4, containing 0.1% of BSA was introduced instead of the second component. Thus, all wells contained 5 μl of antimicrobial compounds solutions (solo or in combination). The same volume of bacterial suspension, prepared as described for microdilution assay, was added into each well. The results were recorded after the overnight incubation, visually indicating the presence or absence of the microbial growth in the corresponding wells. Based on the obtained data the isobolograms of combined action were plotted and/or Fractional Inhibitory Concentration Indices (FICI) were calculated. […] Depending on the minimal value of the FICI the combined effect of the combination was classified as antagonism (FICI > 2), independent action (1 < FICI ≤ 2), additivity (0.5 < FICI ≤ 1) or synergy (FICI ≤ 0.5), as is recommended in the literature and due to some drawbacks of the serial dilution method (Hsieh et al., [1993]; Orhan et al., [2005]; Fehri et al., [2007]). FICIs were assessed in 3–6 independent experiments and median values were used to define the nature of interaction.

[2] = system: E. coli ML-35p; format: cell-based, Escherichia coli
Procedure: as §1

[3] = system: M. luteus CIP A270; format: cell-based, Micrococcus luteus
Procedure: as §1

[4] = system: A. baumannii (clin. isol.); format: cell-based, Acinetobacter baumannii; conditions: AMP in combination with GEN (gentamicin)
Procedure: According to checkerboard titration template, one component (A) of the combination was diluted along the rows of the plate, while the other (B) was diluted down the columns, thereby creating the variety of mixtures with different concentrations of tested compounds. 2.5 μl of corresponding solutions of the components A and B were added into each well of the plate. Into the first column and the last row the same amount of 10 mM sodium phosphate buffer, pH 7.4, containing 0.1% of BSA was introduced instead of the second component. Thus, all wells contained 5 μl of antimicrobial compounds solutions (solo or in combination). The same volume of bacterial suspension, prepared as described for microdilution assay, was added into each well. The results were recorded after the overnight incubation, visually indicating the presence or absence of the microbial growth in the corresponding wells. Based on the obtained data the isobolograms of combined action were plotted and/or Fractional Inhibitory Concentration Indices (FICI) were calculated. […] FICIs were assessed in 3–6 independent experiments and median values were used to define the nature of interaction.

[5] = system: bacteria; assay: Checkerboard titration, synergy cases with conventional antibiotics (all tested bacteria); format: cell-based; conditions: in vitro, human AMPs
Procedure: as §1

[6] = AMP in combination with GEN (gentamicin)
[7] = AMP in combination with OX (oxacillin)
[8] = AMP in combination with PMB (polymyxin B)
[9] = AMP in combination with RIF (rifampicin)

## Lysozyme: egg white lysozyme, antimicrobial protein, from BioChemica
[1]; [6]
  Minimal FICI: 0.53
[1]; [7]
  Minimal FICI: 0.53
[1]; [8]
  Minimal FICI: 0.56
[1]; [9]
  Minimal FICI: 0.62
[2]; [6]
  Minimal FICI: 0.53
[2]; [8]
  Minimal FICI: 0.25
[2]; [9]
  Minimal FICI: 0.62
[3]; [6]
  Minimal FICI: 0.62
[3]; AMP in combination with OFL (ofloxacin)
  Minimal FICI: 0.62
[3]; [7]
  Minimal FICI: 0.75
[3]; [8]
  Minimal FICI: 0.62
[3]; [9]
  Minimal FICI: 0.75
[4]
  Minimal FICI: 0.75

## CC[C@H](C)[C@H](NC(=O)[C@H](CCCCN)NC(=O)[C@H](CCC(=O)O)NC(=O)[C@H](CCCCN)NC(=O)[C@H](CO)NC(=O)[C@H](CCCCN)NC(=O)[C@H](CCCNC(=N)N)NC(=O)[C@H](Cc1ccccc1)NC(=O)[C@H](Cc1ccccc1)NC(=O)[C@H](CC(=O)O)NC(=O)CNC(=O)[C@H](CC(C)C)NC(=O)[C@@H](N)CC(C)C)C(=O)NCC(=O)N[C@@H](CCCCN)C(=O)N[C@@H](CCC(=O)O)C(=O)N[C@@H](Cc1ccccc1)C(=O)N[C@@H](CCCCN)C(=O)N[C@@H](CCCNC(=N)N)C(=O)N[C@H](C(=O)N[C@H](C(=O)N[C@@H](CCC(N)=O)C(=O)N[C@@H](CCCNC(=N)N)C(=O)N[C@H](C(=O)N[C@@H](CCCCN)C(=O)N[C@@H](CC(=O)O)C(=O)N[C@@H](Cc1ccccc1)C(=O)N[C@@H](CC(C)C)C(=O)N[C@@H](CCCNC(=N)N)C(=O)N[C@@H](CC(N)=O)C(=O)N[C@@H](CC(C)C)C(=O)N[C@H](C(=O)N1CCC[C@H]1C(=O)N[C@@H](CCCNC(=N)N)C(=O)N[C@H](C(=O)N[C@@H](CCC(=O)O)C(=O)N[C@@H](CO)C(=O)O)[C@@H](C)O)C(C)C)[C@@H](C)CC)C(C)C)[C@@H](C)CC [LL-37]
[5]
  AMP concentration in synergy cases with conventional antibiotics: around 150 nM
